# Reference: ChEMBL document CHEMBL3880401, “Novel aminopyridine derivatives as mGluR5 antagonists” (2006)
# Target: Metabotropic glutamate receptor 5 (Rattus norvegicus, UniProt P31424)
# Test: Displacement of [3H]-MPEP from mGlur5 from Sprague-Dawley rat brain membranes incubated for 1 hr by liquid scintillation spectrometry
# Format: tissue-based, Membrane
# Sequence of Metabotropic glutamate receptor 5 (P31424 whole entry): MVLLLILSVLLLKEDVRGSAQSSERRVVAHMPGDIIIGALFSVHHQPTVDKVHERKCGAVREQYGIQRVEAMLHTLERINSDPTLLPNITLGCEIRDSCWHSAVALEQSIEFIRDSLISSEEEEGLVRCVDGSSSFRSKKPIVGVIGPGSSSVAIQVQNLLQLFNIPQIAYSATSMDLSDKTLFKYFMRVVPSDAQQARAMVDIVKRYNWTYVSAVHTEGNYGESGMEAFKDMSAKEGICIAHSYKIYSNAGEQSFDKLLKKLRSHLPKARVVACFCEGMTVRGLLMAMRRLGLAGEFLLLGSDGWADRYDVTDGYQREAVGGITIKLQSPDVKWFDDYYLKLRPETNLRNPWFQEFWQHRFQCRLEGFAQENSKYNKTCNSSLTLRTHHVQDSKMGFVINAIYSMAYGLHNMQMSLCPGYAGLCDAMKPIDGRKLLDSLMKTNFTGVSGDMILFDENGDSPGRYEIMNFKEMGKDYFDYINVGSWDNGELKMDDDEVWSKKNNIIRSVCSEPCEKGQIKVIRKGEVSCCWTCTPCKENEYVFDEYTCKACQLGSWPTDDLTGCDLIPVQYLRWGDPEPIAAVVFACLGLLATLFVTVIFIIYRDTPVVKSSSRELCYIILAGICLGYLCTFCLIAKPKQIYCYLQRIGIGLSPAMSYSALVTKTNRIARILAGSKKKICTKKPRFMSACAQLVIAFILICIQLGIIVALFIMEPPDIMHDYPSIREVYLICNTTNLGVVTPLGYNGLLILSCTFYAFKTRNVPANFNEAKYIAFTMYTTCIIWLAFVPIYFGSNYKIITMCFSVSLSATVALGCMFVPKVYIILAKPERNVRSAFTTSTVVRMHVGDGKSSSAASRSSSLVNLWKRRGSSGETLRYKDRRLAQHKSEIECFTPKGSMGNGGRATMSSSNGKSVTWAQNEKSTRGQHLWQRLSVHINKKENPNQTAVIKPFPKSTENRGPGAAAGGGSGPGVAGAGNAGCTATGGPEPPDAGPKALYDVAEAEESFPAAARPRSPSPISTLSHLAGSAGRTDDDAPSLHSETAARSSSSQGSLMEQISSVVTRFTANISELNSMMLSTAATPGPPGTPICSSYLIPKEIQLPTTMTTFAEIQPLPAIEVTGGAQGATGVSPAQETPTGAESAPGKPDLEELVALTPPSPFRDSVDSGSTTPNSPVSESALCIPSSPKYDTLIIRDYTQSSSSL
row,Structure (SMILES),IC50
1,Cc1cc(C)c(N)c(C#Cc2cccc(F)c2)n1,< 30 nM
2,Cc1ccc(N)c(C#Cc2cccc(F)c2)n1,< 30 nM
3,Cc1ccc(N)c(C#Cc2cncc(Cl)c2)n1,< 30 nM
4,Cc1ccc(N)c(C#Cc2cc(F)cc(F)c2)n1,< 30 nM
5,Cc1cc(C)c(N)c(C#Cc2cccc(Cl)c2)n1,< 30 nM
